{"source": "patent US6589966B1", "about": "“Cytotoxic metal chelators and methods for making and using same” (Wake Forest University Health Sciences, priority 1998, dated 2003)", "key": {"[1]": {"system": "mouse (MBT2) bladder cancer cells", "experiment": "MTT dye reduction cell viability assay on MBT2 cells", "format": "cell-based", "protocol": "(§1) The cytotoxic effects of tachpyr on mouse (MBT2) and human (T24) bladder cancer cells were evaluated in vitro, and compared to normal human fibroblasts (MRC-5). MBT2 cells were provided by Dr. L. Lattime (Thomas Jefferson University, Philadelphia, Pa.), while MRC-5 cells were a gift of H. Blau (Standford University, Standford, Calif.). T24 cells were obtained from ATTC (Rockville, Md.). Cells were grown in RPMI (MBT2) or DME medium (T24 and MRC-5) containing 10% fetal bovine serum in a humidified chamber containing 5% CO2. 5×10^3 cells were plated into 96-well tissue culture dishes, and permitted to attach overnight. Test compounds were then added, with six replicate cultures used for each point.\nAfter 72 hours, cell viability was assessed using an MTT dye reduction assay [Mosmann, T., J. Immunol. Meth. 65:55 (1983)]. The MTT assay is widely used to measure drug effects on cell viability. [see Richardson, D., Blood 86:4295 (1995); Brüggerman, S., Cancer Res. 57:2676 (1997); and Silber, R., Blood 84:3440 (1994)]. Specifically, (3-(4,5-dimethylthiazol-2-yl)-2,5-diphenyl tetraxolium bromide was added to the medium, and the formation of a reduced product was assayed by measuring the optical density at 560/650 nm after 3 hours. Color formation was considered proportional to viable cell numbers. IC50 was defined as the concentration required to inhibit viability by 50%, and was calculated using the Multiple Drug-effect Analysis Program (Biosoft).\nMBT2 cells were then incubated with 150 μM (dfo) or 25 μM tachpyr for various lengths of time, and survival was then measured using the MTT assay described above. Viability at time 0 was defined as 100%. […] Rather, cytotoxicity was delayed by approximately 24 hours, paralleling the cytotoxic time course of desferioxamine.\nThe metal complexes of tachpyr were prepared as disclosed in Example 3, and their effects on MBT2 cells were compared to those of tachpyr after 72 hours using the MTT assay referenced in Example 8."}, "tumor cells [2]": {"system": "tumor cells", "details": "background statement; cited from earlier work"}, "[3]": {"details": "Richardson, D., Blood 86:4295 (1995); cited from earlier work"}, "cell culture": {"system": "cell culture", "experiment": "Preliminary cell culture experiments comparing toxicity of tachpyr with tachpn", "format": "cell-based", "text": "In order to further explore the hypothesis that oxidative dehydrogenation is involved in chelator toxicity, the tach-based chelator with three N-propyleneamino arms (termed tachpn, Scheme 4 as shown in FIG. 3) has been studied. Tachpn is distinguished from tachpyr in having the —C(H)(CH3)(NH2) fragment in place of the pyridine ring. The α-hydrogens of tachpn are sterically hindered, relative to tachpyr, by the methyl group in the β position, so that tachpn may have a lower propensity toward α-hydrogen abstraction. Further, the pseudo-benzylic H^a of tachpyr would also have a potentially greater tendency to be abstracted, as compared to tachpn, on electronic grounds [see March, J., Advanced Organic Chemistry. McGraw-Hill, pp 914 ff) The considerations would imply that tachpn is less able than tachpyr to undergo oxidative dehydrogenation and to reduce Fe(III). Preliminary cell culture experiments were conducted to compare the toxicity of tachpyr with tachpn (FIG. 3)."}, "tumor cells [4]": {"system": "tumor cells"}, "RAW 264.7 cells": {"system": "RAW 264.7 cells", "experiment": "Apoptosis: DNA fragmentation by agarose gel electrophoresis", "format": "cell-based", "details": "25 μM, 0, 6, 12 and 20 hours", "text": "Apoptosis, or “programmed cell death,” is a process initiated by many anti-cancer agents. Pathways of apoptosis involve complex intracellular changes, including the action of intracellular proteases (caspases), release of cytochrome C, mitochondrial changes, nuclear condensation and fragmentation, and ultimately cell death. A hallmark of apoptotic cell death is the appearance of “DNA ladders”: DNA cleaved at […] regions to generate a series of DNA fragments that can be visualized using agarose gel electrophoresis. In order to determine whether tachpyr triggers apoptotic pathways, DNA was isolated from RAW 264.7 cells that had been treated with 25 μM tachpyr for 0, 6, 12 and 20 hours. DNA was also isolated from cells treated for 7 hours with 50 μM cisplatin or 500 μM etoposide (VP16). Cisplatin and etoposide are DNA damaging agents that are currently used in cancer therapy and are known to induce apoptosis. They served as positive controls. We compared the effects of tachpyr, VP16 and cisplatin on DNA fragmentation using agarose gel electrophoresis. […] Thus, cytotoxic pathways elicited by tachpyr are similar to those evoked by classic anti-cancer agents, and are consistent with its contemplated use as a chemotherapeutic agent."}, "[5]": {"system": "normal human fibroblasts (MRC-5)", "experiment": "MTT dye reduction cell viability assay on MRC-5 cells", "format": "cell-based", "details": "cell type MRC-5, 72 hours, read-out: IC50(μM) of Tachpyr", "protocol": "as §1\n(§2) After 72 hours, cell viability was assessed using an MTT dye reduction assay [Mosmann, T., J. Immunol. Meth. 65:55 (1983)]. The MTT assay is widely used to measure drug effects on cell viability. [see Richardson, D., Blood 86:4295 (1995); Brüggerman, S., Cancer Res. 57:2676 (1997); and Silber, R., Blood 84:3440 (1994)]. […]"}, "MBT2 cells": {"system": "MBT2 cells", "experiment": "Clonogenic assay", "format": "cell-based, mouse", "details": "72 hours with tachpyr, colonies grown seven days", "protocol": "Cell viability was also-assessed using a clonogenic assay, which measures the ability of cells to divide and form visible colonies of about 50 or more cells. Replicate plates were exposed to various concentrations of tachpyr added to the growth medium. Control cells received no tachpyr. At the end of the incubation period, the surviving cells were trypsinized, diluted, and re-plated in growth medium without tachpyr. Colonies were permitted to grow for seven days. The growth medium was then removed, and plates were fixed with 0.5% gluteraldehyde, stained with 1% crystal violet, and then counted."}, "[6]": {"system": "human (T24) bladder cancer cells", "experiment": "MTT dye reduction cell viability assay on T24 cells", "format": "cell-based", "details": "cell type T24, 72 hours, read-out: IC50(μM) of Tachpyr", "protocol": "as §1, §2"}, "[7]": {"system": "MBT2 or T24 cultured bladder cancer cells", "experiment": "Cytotoxicity toward cultured bladder tumor cells", "format": "cell-based", "details": "cultured human and mouse bladder tumor cells", "protocol": "as §1, §2"}, "ferritin synthesis": {"system": "ferritin synthesis", "experiment": "Ferritin synthesis (35S labeling, immunoprecipitation, SDS PAGE)", "format": "cell-based", "details": "20 μM tachpyr, 16 hours", "protocol": "Ferritin is a major iron storage protein whose synthesis is dependent upon intracellular concentrations of iron. To examine the role of tachpyr in the chelation of intracellular iron, the influence of tachpyr on ferritin synthesis was examined. Cells were exposed for either 7 or 16 hours to media containing either no additions, 20 μM tachpyr, 150 μM desferioxamine or 200 μM ferric nitrolotriacetate. During the last two hours of incubation, cells were metabolically labeled with S-translabel (ICN) and ferritin visualized by immunoprecipitation and SDS PAGE [Torti, S. et al.,J. Biol. Chem. 263:12638 (1988).]"}, "breast cancer cell lines": {"system": "breast cancer cell lines", "experiment": "Cytotoxicity to breast cancer cell lines", "format": "cell-based"}}, "note": "Where two headings read alike, the source gives them in different places."}
{"compound": "[Cl-].[Cl-].[Cu+2].c1ccc(CNC2CC(NCc3ccccn3)CC(NCc3ccccn3)C2)nc1", "note": "(centres unmarked) [CU(II) complex of tachpyr]", "values": [{"measurement": "cytotoxicity (in words)", "setting": "[1]; MBT2 cells, 72 hours, MTT", "result": "not toxic"}]}
{"compound": "[Ca+2].[Cl-].[Cl-].c1ccc(CNC2CC(NCc3ccccn3)CC(NCc3ccccn3)C2)nc1", "note": "(centres unmarked) [Ca(II) complex of tachpyr]", "values": [{"measurement": "cytotoxicity (in words)", "setting": "[1]; MBT2 cells, 72 hours, MTT", "result": "toxic"}]}
{"compound": "[Cl-].[Cl-].[Mg+2].c1ccc(CNC2CC(NCc3ccccn3)CC(NCc3ccccn3)C2)nc1", "note": "(centres unmarked) [MG(II) complex of tachpyr]", "values": [{"measurement": "cytotoxicity (in words)", "setting": "[1]; MBT2 cells, 72 hours, MTT", "result": "toxic"}]}
{"compound": "[Mn+2].[O-][Cl+3]([O-])([O-])[O-].[O-][Cl+3]([O-])([O-])[O-].c1ccc(CNC2CC(NCc3ccccn3)CC(NCc3ccccn3)C2)nc1", "note": "(centres unmarked) [MN(II) complex of tachpyr]", "values": [{"measurement": "cytotoxicity (in words)", "setting": "[1]; MBT2 cells, 72 hours, MTT", "result": "toxic"}]}
{"compound": "[O-][Cl+3]([O-])([O-])[O-].[O-][Cl+3]([O-])([O-])[O-].[Zn+2].c1ccc(CNC2CC(NCc3ccccn3)CC(NCc3ccccn3)C2)nc1", "note": "(centres unmarked) [Zn(II) complex of tachpyr]", "values": [{"measurement": "cytotoxicity (in words)", "setting": "[1]; MBT2 cells, 72 hours, MTT", "result": "not toxic"}]}
{"compound": "c1ccc(-c2ccccn2)nc1", "note": "[bipy]", "values": [{"measurement": "cytotoxic effects on tumor cells (in words)", "setting": "tumor cells [2]", "result": "only weak cytotoxic effects"}]}
{"compound": "CC(=O)N(O)CCCCCNC(=O)CCC(=O)N(O)CCCCCNC(=O)CCC(=O)N(O)CCCCCN", "note": "[desferrioxamine, reference compound]", "values": [{"measurement": "cytotoxicity (in words)", "setting": "[1]; MBT2 cells, 72 hours, MTT", "result": "cytotoxic"}, {"measurement": "IC50", "setting": "[1]; Mus musculus, MBT2 cells, 72 hours, MTT, single experiment of FIG. 8, read-out: calculated IC50 from FIG. 8 data", "result": 70, "unit": "µM"}, {"measurement": "IC50", "setting": "[1]; Mus musculus, MBT2 cells, 72 hours, MTT, tachpyr: average of four independent experiments ± standard error, read-out: IC50", "result": 70, "unit": "µM"}, {"measurement": "IC50", "setting": "[3]", "result": 70, "unit": "µM"}]}
{"compound": "CC(N)CNC1CC(NCC(C)N)CC(NCC(C)N)C1", "note": "(centres unmarked) [tachpn]", "values": [{"measurement": "IC50", "setting": "cell culture; preliminary cell culture experiments, cell line not stated", "result": "~80", "unit": "µM"}, {"measurement": "decrease in toxicity relative to tachpyr", "setting": "cell culture; ratio of IC50 values", "result": 17, "unit": "fold"}]}
{"compound": "C(=NC1CC(N=Cc2ccccn2)CC(N=Cc2ccccn2)C1)c1ccccn1", "note": "(stereo not drawn) [tachpyr-3H2, cis,cis-1,3,5-tris(pyridine-2-carboxaldimino)cyclohexane]", "values": [{"measurement": "cytotoxicity (in words)", "setting": "tumor cells [4]", "result": "no cytotoxicity"}]}
{"compound": "c1ccc(CNC2CC(NCc3ccccn3)CC(NCc3ccccn3)C2)nc1", "note": "(centres unmarked) [tachpyr]", "values": [{"measurement": "DNA fragmentation (DNA ladders)", "setting": "RAW 264.7 cells", "result": "clearly induced DNA fragmentation"}, {"measurement": "delay of cytotoxicity", "setting": "[1]; MBT2 cells, 25 μM tachpyr, time course, MTT", "result": "approximately 24 hours"}, {"measurement": "cytotoxicity (in words)", "setting": "[1]; MBT2 cells, 72 hours, MTT", "result": "cytotoxic"}, {"measurement": "IC50", "setting": "[1]; MBT2 cells, 72 hours, MTT, single experiment of FIG. 8, read-out: calculated IC50 from FIG. 8 data", "result": 3.6, "unit": "µM"}, {"measurement": "IC50", "setting": "[1]; MBT2 cells, 72 hours, MTT, tachpyr: average of four independent experiments ± standard error, read-out: IC50", "result": "4.6 ± 2", "unit": "µM"}, {"measurement": "IC50", "setting": "[1]; Table I, cell type MBT2, read-out: IC50(μM) of Tachpyr", "result": 2.2, "unit": "µM"}, {"measurement": "IC50", "setting": "[5]", "result": 30.5, "unit": "µM"}, {"measurement": "colony formation", "setting": "MBT2 cells", "result": "inhibited colony formation"}, {"measurement": "IC50", "setting": "[6]", "result": 4.3, "unit": "µM"}, {"measurement": "toxicity (in words)", "setting": "[7]", "result": "extremely toxic"}, {"measurement": "ferritin synthesis", "setting": "ferritin synthesis", "result": "repressed"}, {"measurement": "cytotoxicity (in words)", "setting": "breast cancer cell lines", "result": "cytotoxic"}]}
{"compound": "[Fe(tachpyr)]Cl2 [FE(II) complex of tachpyr]", "values": [{"measurement": "cytotoxicity (in words)", "setting": "[1]; MBT2 cells, 72 hours, MTT", "result": "not toxic"}]}
